One assay has as its target 5-HT2A (Homo sapiens (Human), UniProt P28223). Description: 5-HT2A Gq-mediated calcium flux functional assay. It counts as cell-based. (Calcium assays in cells follow changes in intracellular calcium, usually with a dye or a luminescent sensor.)
The target of another assay is Serotonin 5-HT2A (human) (Homo sapiens (Human), UniProt P28223). The assay can be described thus: 5-HT2A receptor binding, [3H]-ketanserin competition in membrane fractions. The note with it: for 5-HT2A pKi ± SEM: 1 nM [3H]-ketanserin, Cheng-Prusoff, N=1-3.
In the next assay the target is 5-HT2B (Homo sapiens (Human), UniProt P41595). The assay can be described thus: 5-HT2B Gq-mediated calcium flux functional assay. It counts as cell-based.
The next assay has as its target 5-HT2C (Homo sapiens (Human), UniProt P28335). Description: 5-HT2C Gq-mediated calcium flux functional assay. It counts as cell-based.
The next assay addresses 5-HT1A (Homo sapiens (Human), UniProt P08908). Description: 5-HT1A Gi/o-mediated cAMP inhibition, GloSensor assay. It counts as cell-based. Particulars: for 5-HT1A-cAMP Emax (% 5-HT): cAMP inhibition, 0.2 μM isoproterenol, IA = Inactive.

pEC50, pKi: −log10 of the molar value. Read-outs that look alike come from different tables or passages of the source.

Chain of 5-HT2C (P28335 whole entry, looked up): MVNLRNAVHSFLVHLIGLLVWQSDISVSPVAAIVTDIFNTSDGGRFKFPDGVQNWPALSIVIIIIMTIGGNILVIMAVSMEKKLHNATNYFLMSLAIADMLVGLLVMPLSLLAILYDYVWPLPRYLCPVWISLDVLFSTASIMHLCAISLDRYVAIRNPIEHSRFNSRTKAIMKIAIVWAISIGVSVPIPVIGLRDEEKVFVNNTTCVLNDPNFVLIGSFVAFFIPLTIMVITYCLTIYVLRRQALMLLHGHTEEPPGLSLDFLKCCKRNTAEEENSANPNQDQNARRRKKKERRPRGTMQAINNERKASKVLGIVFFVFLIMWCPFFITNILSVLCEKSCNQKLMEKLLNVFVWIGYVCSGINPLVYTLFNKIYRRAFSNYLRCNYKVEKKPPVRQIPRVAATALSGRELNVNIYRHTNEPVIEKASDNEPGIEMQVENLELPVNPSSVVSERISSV
Chain of 5-HT2B (P41595 whole entry): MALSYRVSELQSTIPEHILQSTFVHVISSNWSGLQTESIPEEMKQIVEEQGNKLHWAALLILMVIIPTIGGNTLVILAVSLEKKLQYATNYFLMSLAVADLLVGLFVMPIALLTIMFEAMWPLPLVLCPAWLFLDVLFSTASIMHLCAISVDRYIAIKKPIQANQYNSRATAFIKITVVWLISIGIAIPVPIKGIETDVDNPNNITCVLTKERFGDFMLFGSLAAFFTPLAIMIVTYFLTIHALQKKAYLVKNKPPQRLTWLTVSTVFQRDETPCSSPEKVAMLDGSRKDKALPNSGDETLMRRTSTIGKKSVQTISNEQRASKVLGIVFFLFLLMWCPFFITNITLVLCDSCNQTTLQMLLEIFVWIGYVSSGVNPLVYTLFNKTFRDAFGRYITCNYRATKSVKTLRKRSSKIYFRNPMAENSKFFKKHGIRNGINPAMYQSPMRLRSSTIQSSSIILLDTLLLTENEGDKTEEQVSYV

As for `CCCN(CC)CCc1c[nH]c2ccc(F)cc12` [Example 6, N-ethyl-N-(2-(5-fluoro-1H-indol-3-yl)ethyl)propan-1-amine], the pEC50 (in general, the negative decadic logarithm of the EC50, by convention in mol/L) at 5-HT2A was 9.11; on 5-HT2B, 8.96; on 5-HT2C, 8.75; on 5-HT1A it was 7.31. The “5-HT2A-Ca2+ FLUX Emax (% 5-HT)” value on 5-HT2A (IA = Inactive, N=1-3) came to 103.5 ± 0.8 % 5-HT. The “5-HT2A pKi ± SEM” value at Serotonin 5-HT2A (human) is recorded as 6.06 ± 0.13. Moreover, at 5-HT2B (IA = Inactive, N=1-3), the “5-HT2B-Ca2+ FLUX Emax (% 5-HT)” value was determined as 101.2 ± 0.7 % 5-HT. Moreover, at 5-HT2C (IA = Inactive, N=1-3), the “5-HT2C-Ca2+ FLUX Emax (% 5-HT)” value is recorded as 111.7 ± 2.5 % 5-HT. The “5-HT1A-cAMP Emax (% 5-HT)” value at 5-HT1A worked out at 90.5 ± 1.8 % 5-HT.
As for `C=CCN(CC)CCc1c[nH]c2ccc(F)cc12` [compound 36, N-ethyl-N-(2-(5-fluoro-1H-indol-3-yl)ethyl)prop-2-en-1-amine], the pEC50 was 8.92 at 5-HT2A, 8.76 at 5-HT2B, 7.77 at 5-HT2C and 7.25 on 5-HT1A. In addition, at 5-HT2A (IA = Inactive, N=1-3), the “5-HT2A-Ca2+ FLUX Emax (% 5-HT)” value was determined as 104.8 ± 2.0 % 5-HT. In addition, the “5-HT2A pKi ± SEM” value on Serotonin 5-HT2A (human) amounted to 6.13 ± 0.08. For the same compound, on 5-HT2B (IA = Inactive, N=1-3), the “5-HT2B-Ca2+ FLUX Emax (% 5-HT)” value amounted to 104.5 ± 2.0 % 5-HT. Further, the “5-HT2C-Ca2+ FLUX Emax (% 5-HT)” value on 5-HT2C (IA = Inactive, N=1-3) came out at 101.5 ± 1.9 % 5-HT. Besides, on 5-HT1A, the “5-HT1A-cAMP Emax (% 5-HT)” value worked out at 98.4 ± 1.5 % 5-HT.
For the compound `CC(CN)c1c[nH]c2ccc(F)cc12` (stereo not drawn) [compound 187, 2-(5-fluoro-1H-indol-3-yl)propan-1-amine], the “5-HT2A-Ca2+ FLUX Emax (% 5-HT)” value at 5-HT2A (IA = Inactive, N=1-3) amounted to 90.7 ± 2.5 % 5-HT. Further, the EC50 is 36.3 nM on 5-HT2A (IA = Inactive, N=1-3, read-out: 5-HT2A-Ca2+ FLUX pEC50 (converted)); 1.26 nM on 5-HT2B (IA = Inactive, N=1-3, read-out: 5-HT2B-Ca2+ FLUX pEC50 (converted)); 18.6 nM on 5-HT2C (IA = Inactive, N=1-3, read-out: 5-HT2C-Ca2+ FLUX pEC50 (converted)). At Serotonin 5-HT2A (human), the “5-HT2A pKi ± SEM” value was determined as 5.41. In addition, on 5-HT2B (IA = Inactive, N=1-3), the “5-HT2B-Ca2+ FLUX Emax (% 5-HT)” value came to 89.0 ± 1.4 % 5-HT. For the same compound, the “5-HT2C-Ca2+ FLUX Emax (% 5-HT)” value at 5-HT2C (IA = Inactive, N=1-3) is 93.6 ± 0.9 % 5-HT. The compound further gave a pEC50 at 5-HT1A of 6.03. Moreover, the “5-HT1A-cAMP Emax (% 5-HT)” value at 5-HT1A is reported as 88.5 ± 2.8 % 5-HT.
`CCC(C)N(CC)CCc1c[nH]c2ccc(F)cc12` (stereo not drawn) [compound 30, N-ethyl-N-(2-(5-fluoro-1H-indol-3-yl)ethyl)butan-2-amine]: the pEC50 at 5-HT2A was 8.61; on 5-HT2B, 8.46; on 5-HT2C, 6.83; on 5-HT1A, 6.33. Moreover, the “5-HT2A-Ca2+ FLUX Emax (% 5-HT)” value at 5-HT2A (IA = Inactive, N=1-3) is 93.2 ± 1.7 % 5-HT. Also, at Serotonin 5-HT2A (human), the “5-HT2A pKi ± SEM” value is listed as 5.70 ± 0.39. The “5-HT2B-Ca2+ FLUX Emax (% 5-HT)” value at 5-HT2B (IA = Inactive, N=1-3) was 83.8 ± 2.1 % 5-HT. On 5-HT2C (IA = Inactive, N=1-3), the “5-HT2C-Ca2+ FLUX Emax (% 5-HT)” value is listed as 72.2 ± 2.9 % 5-HT. Moreover, the “5-HT1A-cAMP Emax (% 5-HT)” value on 5-HT1A is recorded as 104.0 ± 3.1 % 5-HT.
In the case of `CC(C)N(CCc1c[nH]c2ccc(F)cc12)C1CCC1` [compound 40, N-(2-(5-fluoro-1H-indol-3-yl)ethyl)-N-isopropylcyclobutanamine], the pEC50 is 9.05 on 5-HT2A, 8.96 on 5-HT2B, 6.95 at 5-HT2C and 7.18 at 5-HT1A. On 5-HT2A (IA = Inactive, N=1-3), the “5-HT2A-Ca2+ FLUX Emax (% 5-HT)” value is recorded as 102.5 ± 2.0 % 5-HT. Besides, the “5-HT2A pKi ± SEM” value at Serotonin 5-HT2A (human) is 6.06 ± 0.05. Also, the “5-HT2B-Ca2+ FLUX Emax (% 5-HT)” value at 5-HT2B (IA = Inactive, N=1-3) came out at 106.7 ± 1.5 % 5-HT. Moreover, on 5-HT2C (IA = Inactive, N=1-3), the “5-HT2C-Ca2+ FLUX Emax (% 5-HT)” value was determined as 94.9 ± 2.0 % 5-HT. The “5-HT1A-cAMP Emax (% 5-HT)” value on 5-HT1A came out at 102.1 ± 1.7 % 5-HT.
As to `C=CCN(C)CCc1c[nH]c2ccc(F)cc12` [Example 10, N-(2-(5-fluoro-1H-indol-3-yl)ethyl)-N-methylprop-2-en-1-amine], the pEC50 is 9.32 at 5-HT2A, 9.02 at 5-HT2B, 8.52 at 5-HT2C and 7.05 on 5-HT1A. Besides, the “5-HT2A-Ca2+ FLUX Emax (% 5-HT)” value at 5-HT2A (IA = Inactive, N=1-3) is on record as 100.3 ± 2.2 % 5-HT. Further, the negative logarithm of the Ki (pKi) (in general, the Ki on a negative log10 scale, so that one unit is a factor of ten) at Serotonin 5-HT2A (human) is 6.51. Also, the “5-HT2B-Ca2+ FLUX Emax (% 5-HT)” value at 5-HT2B (IA = Inactive, N=1-3) is recorded as 73.8 ± 2.3 % 5-HT. Moreover, the “5-HT2C-Ca2+ FLUX Emax (% 5-HT)” value on 5-HT2C (IA = Inactive, N=1-3) amounted to 97.4 ± 2.6 % 5-HT. Moreover, the “5-HT1A-cAMP Emax (% 5-HT)” value on 5-HT1A was found to be 97.8 ± 2.7 % 5-HT.

(Values after patent publication US20240286998A1, “F[…], ANALOGUES THEREOF, AND METHODS USING SAME” (Saint Joseph's University, priority 2021, published 2024).)
